Results published in US4007201A, “Novel pyrazole derivatives” (Kyorin Pharmaceutical Co. Ltd., priority 1975, dated 1977).

Tests used:
[1] = system: blood glucose level in fasted and glucose-loaded rats; test: Duration of the action of the compound 4 (fasted, glucose-loaded rats); format: in vivo, male Sprague Dawley rats; settings: for Blood glucose before administration: 50 mg/kg oral group, before administration (baseline); for Blood glucose before administration / Blood glucose 2 hours / Blood glucose 4 hours / Blood glucose 6 hours: ± SE
Procedure: (§1) These new compounds of the present invention are very useful as anti-diabetic agents, which is supported from the following pharmacological studies. The animals used for the pharmacological studies were male Sprague Dawley rats exept otherwise noted. 1. Hypoglycemic activity in non-diabetic rats (screening test)
(§2) The rats were fasted for 16 - 18 hours prior to the experiment and those weighing 140 - 160g were used. Glucose solution (100 mg/0.5ml/150g body weight) was subcutaneously injected on the fasted rats. Each of the present compounds was suspended in 1% carboxymethyl cellulose (CMC), and about 0.5 ml of the suspension (corresponding to 100 mg/kg of the compound per body weight) was orally administered. Blood samples were taken from the tail vein of the rats at 2 and 5 hours after the administration, and the blood glucose level in each sample (0.1 ml) was determined by the micro method of Momose as described in SOGO-RINSHO 11, 120 (1962).
In order to reconfirm the effectiveness of the compounds of the present invention, more detailed examinations were performed on the most representative compound (compound of the Example 4 abbreviated hereinafter as the compound 4). The compound 4 suspended in 1% CMC was orally administered in a dose of 50 mg/kg to the fasted and glucose-loaded rats according to the preceding screening test, and the blood glucose levels at 2, 4 and 6 hours after the administration were determined by the method of Momose.

[2] = system: blood glucose level in fasted and glucose-loaded rats; test: Relationships between doses and reducing activity of the compound 4; format: in vivo, male Sprague Dawley rats; settings: for Blood glucose: ± SE
Procedure: (§3) The animals used for the pharmacological studies were male Sprague Dawley rats exept otherwise noted. 1. Hypoglycemic activity in non-diabetic rats (screening test)
as §2
The compound 4 and tolbutamide were orally administered to the fasted and glucose-loaded rats in various doses.

[3] = system: elevated blood glucose levels in adrenalectomized rats induced by adrenalin; test: Adrenalin-induced hyperglycemia in adrenalectomized rats; format: in vivo, male Sprague Dawley rats; settings: 4 mg/kg; adrenalin (50 mg/kg) subcutaneous
[4] = system: elevated blood glucose levels in adrenalectomized rats induced by hydrocortisone acetate; test: Hydrocortisone acetate-induced hyperglycemia in adrenalectomized rats; format: in vivo, male Sprague Dawley rats; settings: 4 mg/kg; hydrocortisone acetate intravenous
[5] = system: blood glucose level in non-diabetic rats; test: Blood glucose level in non-diabetic rats, oral administration for 10 days; format: in vivo, male Sprague Dawley rats
Procedure: as §1
The compound suspended in 1% CMC was orally administered once a day for 10 days to healthy rats weighing 140-160g. The rats were fasted for 16-18 hours prior to the last administration. Blood samples were taken at 90 minutes after the last administration, and the blood glucose and serum FFA levels were determined, respectively.

[6] = system: serum FFA level in alloxan diabetic rats; test: Serum FFA level in alloxan diabetic rats, oral administration; format: in vivo, male Sprague Dawley rats; settings: compound 4 at 12.5 and 100 mg/kg, 1.5 and 5 hours
Procedure: as §1
(§4) Alloxan diabetic rats were obtained as follows. Namely, 2.5% fresh solution of alloxan (50mg/kg) was injected into the tail vein of male rats, and the rats were daily injected with insulin (1-4 units/day) from the 7th day after the administration of alloxan. The alloxan diabetic rats which were survived for more than 2 months with daily injection of insulin were used. The alloxan diabetic rats were fasted for 24 hours after the last treatment with insulin, and then the compound of the present invention was orally administered. The blood glucose levels were determined by the micro method of Momose before and 2, 4 and 6 hours after the administration.
(§5) The alloxan diabetic rats which were prepared and then preserved for 6 months with insulin as described in the previous experiment were used.

[7] = system: serum FFA level in alloxan diabetic rats; test: Serum FFA level in alloxan diabetic rats, 10 consecutive days; format: in vivo, male Sprague Dawley rats
Procedure: as §1, §4, §5

[8] = system: serum cholesterol level in alloxan diabetic rats; test: Serum cholesterol level in alloxan diabetic rats, 10 consecutive days; format: in vivo, male Sprague Dawley rats
Procedure: as §1, §4, §5

[9] = system: serum triglyceride level in alloxan diabetic rats; test: Serum triglyceride level in alloxan diabetic rats, 10 consecutive days; format: in vivo, male Sprague Dawley rats
Procedure: as §3, §4, §5

[10] = system: serum FFA level in alloxan diabetic rats; test: Serum FFA level in alloxan diabetic rats loaded with much quantity of glucose; format: in vivo, male Sprague Dawley rats; settings: compound 4 12.5 and 100 mg/kg, phenformin 100mg/kg; oral with 2g/kg of glucose; 3 hours
Procedure: as §1
Respective dose of the compound 4 (12.5 and 100 mg/kg) together with 2g/kg of glucose was orally administered to the alloxan diabetic rats.

[11] = system: blood glucose level in streptozotocin-diabetic rats; test: Hypoglycemic effect in streptozotocin-diabetic rats; format: in vivo, male Sprague Dawley rats; settings: for Blood glucose level Before: before (baseline); for Hypoglycemic effect in streptozotocin-diabetic rats (in words): oral
Procedure: The animals used for the pharmacological studies were male Sprague Dawley rats exept otherwise noted. 1. […]
The rats were fasted for 16 hours, and then streptozotocin was intravenously injected in a dose of 65 mg/kg. Oral administration of the compound 4 was performed at 48 hours after the injection of streptozotocin. Blood samples were taken at 4 hours after the oral administration, and the blood glucose level in each sample was determined.

[12] = system: liver glycogen level in rats loaded with glucose; test: Liver glycogen level in rats loaded with glucose; format: in vivo, male Sprague Dawley rats; settings: oral in 40% glucose solution; 3 hours
Procedure: as §3
The rats were fasted for 16 - 18 hours, and then the compound 4 suspended in 40% glucose solution was orally administered (5 ml/kg of the suspension per body weight). Glycogen content in the liver was determined at 3 hours after the administration.

Acute toxicity in mice = format: in vivo
Excerpt: (§6) Thus, the toxicity of the present compound was considered to be extremely low.

Acute toxicity in rats = format: in vivo
Excerpt: as §6

[13] = 100 mg/kg, 10 consecutive days, control = 100
[14] = Rattus norvegicus, 100 mg/kg oral, 4 hours
[15] = maximum dose technically possible

Structure (SMILES): Cc1cc(C)n(C(=O)CNS(=O)(=O)c2ccc(Cl)cc2)n1 [Example 4, 1-(N-p-chlorobenzenesulfonyl-glycyl)-3,5-dimethylpyrazole]
- Blood glucose before administration [1]: 85.6 ± 3.2 mg%
- Durability of hypoglycemic effect ([1]; 50 mg/kg oral, 2, 4 and 6 hours): more durable than that of tolbutamide
- Blood glucose 2 hours ([1]; 50 mg/kg oral): 50.9 ± 1.2 mg%
- Blood glucose 4 hours ([1]; 50 mg/kg oral): 63.1 ± 3.0 mg%
- Blood glucose 6 hours ([1]; 50 mg/kg oral): 74.0 ± 1.6 mg%
- Reduction % from control ([2]; 0.56 mg/kg oral): 14.9%
- Blood glucose ([2]; 0.56 mg/kg oral): 77.5 ± 6.6 mg%
- Reduction % from control ([2]; 1.14 mg/kg oral): 19.4%
- Reduction of the blood glucose level (in words) ([2]; 1.14 mg/kg oral): significantly reduced the blood glucose level even at the dose of 1.14 mg/kg
- Blood glucose ([2]; 1.14 mg/kg oral): 73.4 ± 6.4 mg%
- Reduction % from control ([2]; 3.38 mg/kg oral): 20.6%
- Blood glucose ([2]; 3.38 mg/kg oral): 72.3 ± 4.1 mg%
- Reduction % from control ([2]; 6.75 mg/kg oral): 24.0%
- Blood glucose ([2]; 6.75 mg/kg oral): 69.2 ± 7.8 mg%
- Reduction % from control ([2]; 12.5 mg/kg oral): 34.8%
- Blood glucose ([2]; 12.5 mg/kg oral): 59.4 ± 4.0 mg%
- Reduction % from control ([2]; 25 mg/kg oral): 45.4%
- Blood glucose ([2]; 25 mg/kg oral): 49.7 ± 2.8 mg%
- Reduction % from control ([2]; 50 mg/kg oral): 40.5%
- Blood glucose ([2]; 50 mg/kg oral): 54.2 ± 2.9 mg%
- Hypoglycemic activity against hyperglycemia induced by adrenalin [3]: particularly effective against the hyperglycemia induced by adrenalin
- Hypoglycemic activity on elevated blood glucose induced by hydrocortisone acetate [4]: exerted its hypoglycemic activity on elevated blood glucose levels in adrenalectomized rats
- Blood glucose levels ([5]; 0.8 mg/kg oral once a day): 81.6 ± 4.8 mg/dL
- Blood glucose levels ([5]; 3.1 mg/kg oral once a day): 74.4 ± 6.6 mg/dL
- Blood glucose levels ([5]; 12.5 mg/kg oral once a day): 74.8 ± 3.9 mg/dL
- Blood glucose levels ([5]; 50.0 mg/kg oral once a day): 69.9 ± 6.7 mg/dL
- Effect on serum FFA level in alloxan diabetic rats (in words) [6]: drastically decreased within 1.5 hours, and it was still more lowered even at 5 hours later
- FFA ([7]; 100 mg/kg, 10 consecutive days): 28.5 ± 7.6 μ Eq/dl serum
- FFA, relative to control (100) [7, 13]: 44.0
- Effect on serum FFA level, 10 days (in words) ([7]; oral, 10 days): significantly reduced
- Cholesterol ([8]; 100 mg/kg, 10 consecutive days): 46.1 ± 2.9 mg/dl serum
- Cholesterol, relative to control (100) [8, 13]: 77.6
- Effect on serum cholesterol level, 10 days (in words) ([8]; oral, 10 days): significantly reduced
- Triglyceride ([9]; 100 mg/kg, 10 consecutive days): 22.1 ± 4.6 mg/dl serum
- Triglyceride, relative to control (100) [9, 13]: 40.1
- Effect on serum triglyceride level, 10 days (in words) ([9]; oral, 10 days): significantly reduced
- Effect on serum FFA level (in words) [10]: significantly lowered at 3 hours after the administration (p<0.005)
- Blood glucose level Before ([11]; 6.25 mg/kg oral group): 425.3 ± 10.5 mg %
- Blood glucose level 4 hours ([11]; 6.25 mg/kg oral, 4 hours): 263.2 ± 26.6 mg %
- Blood glucose level Before ([11]; 25 mg/kg oral group): 415.8 ± 12.2 mg %
- Blood glucose level 4 hours ([11]; 25 mg/kg oral, 4 hours): 251.2 ± 21.8 mg %
- Blood glucose level Before ([11]; 100 mg/kg oral group): 411.5 ± 16.9 mg %
- Blood glucose level 4 hours ([11]; 100 mg/kg oral, 4 hours): 231.4 ± 33.3 mg %
- inhibition at 6.25 mg/kg ([11]; Rattus norvegicus, 6.25 mg/kg oral, 4 hours): 61.9 ± 6.2%
- inhibition at 25 mg/kg ([11]; Rattus norvegicus, 25 mg/kg oral, 4 hours): 59.8 ± 3.8%
- inhibition at 100 mg/kg [11, 14]: 54.3 ± 6.4%
- Hypoglycemic effect in streptozotocin-diabetic rats (in words) ([11]; 4 hours): markedly reduced the blood glucose level
- Effect on the liver glycogen level [12]: significantly reduced the liver glycogen level (p<0.001)
- Maximum oral dose without death (Acute toxicity in mice; [15]): about 17 g/kg
- Mortality (Acute toxicity in mice; oral, up to about 17g/kg): no mice or rats suffered death
- Maximum oral dose without death (Acute toxicity in rats; [15]): about 17 g/kg
- Mortality (Acute toxicity in rats; oral, up to about 17g/kg): no mice or rats suffered death

Structure (SMILES): CCCCNC(=O)NS(=O)(=O)c1ccc(C)cc1 [Tolbutamide, reference compound]
- Blood glucose before administration [1]: 86.2 ± 2.1 mg%
- Blood glucose 2 hours ([1]; 50 mg/kg oral): 44.7 ± 5.0 mg%
- Blood glucose 4 hours ([1]; 50 mg/kg oral): 60.4 ± 5.4 mg%
- Blood glucose 6 hours ([1]; 50 mg/kg oral): 80.7 ± 5.4 mg%
- Reduction % from control ([2]; 6.75 mg/kg oral): 3.8%
- Blood glucose ([2]; 6.75 mg/kg oral): 87.6 ± 6.5 mg%
- Reduction % from control ([2]; 12.5 mg/kg oral): -1.4%
- Blood glucose ([2]; 12.5 mg/kg oral): 92.4 ± 3.5 mg%
- Reduction % from control ([2]; 25 mg/kg oral): 19.3%
- Blood glucose ([2]; 25 mg/kg oral): 73.5 ± 5.0 mg%
- Reduction % from control ([2]; 50 mg/kg oral): 48.0%
- Blood glucose ([2]; 50 mg/kg oral): 47.4 ± 3.4 mg%
- Potency at low doses (in words) ([2]; low doses, oral): not potent at low doses
- Blood glucose levels ([5]; 50.0 mg/kg oral once a day): 33.6 ± 6.3 mg/dL
- Effect on serum FFA level in alloxan diabetic rats (in words) [6]: no suppressive effect on the serum FFA level
- Blood glucose level Before ([11]; 100 mg/kg oral group): 413.9 ± 10.2 mg %
- Blood glucose level 4 hours ([11]; 100 mg/kg oral, 4 hours): 327.8 ± 11.3 mg %
- inhibition at 100 mg/kg [11, 14]: 79.4 ± 2.7%
- Hypoglycemic effect in streptozotocin-diabetic rats (in words) ([11]; 4 hours): did not have a potent hypoglycemic activity
- Effect on the liver glycogen level [12]: neither tolbutamide or pnenformin exerted such effect
